Assay results published in PMC11898701, “Evaluating Therapeutic Efficacy of the Vascular Disrupting Agent OXi8007 Against Kidney Cancer in Mice” (Cancers, 2025).
Like-named read-outs stand apart in the source and are kept apart here. Marks after values point to notes of the source that are not given here.

Tests used:
[1] = system: Renca cells; test: Microtubule disruption and cell morphology in Renca cells; type: cell-based, mouse; conditions: 2.5 and 5 µM
Description: Renca cells were plated in cell culture-treated 96-well plates (Grenier Bio-One North America Inc., Monroe, NC, USA) at 2000 cells/well and allowed to adhere for 24 h before treatment. Hoechst 33342 (1 μg/mL) in complete RPMI 1640 medium was used to stain the cell nuclei for 15 min at 37 °C. […] The medium was removed to reduce background fluorescence, followed by two wash cycles with fresh medium. Fresh medium containing 25 μM of verapamil hydrochloride was added to the stained cells prior to imaging. Images of the microtubule cytoskeleton and nuclei were collected over 3 h using a Biotek Lionheart microscope ELx800 in fluorescence mode with a 20× objective.

[2] = system: orthotopic Renca-luc tumors; test: Acute response by oxygen-enhanced MSOT; type: in vivo, mouse
Description: (§1) For the multispectral optoacoustic tomography (MSOT), an iThera InVision 256-TF device with seven wavelengths (700, 730, 760, 780, 800, 820, and 875 nm) was used. Mice were shaved and depilated around the tumor region. The anesthetized mouse (1–2% isoflurane) was placed in the imaging chamber (34 °C) for 10 min to reach thermal equilibrium before imaging a single slice showing the largest cross-section of the tumor. An oxygen gas breathing challenge was performed to assess the dynamic changes in blood oxygenation. Images were generated using ViewMSOT version 4.2 with a back projection-based reconstruction algorithm followed by built-in fluence correction. Oxy- and deoxyhemoglobin were resolved using a linear regression approach.
(§2) Oxygen saturation (sO2) maps were analyzed using MATLAB 2022b (MathWorks Inc., Natick, MA, USA), and the images were visualized with Fiji. The percentage of hemoglobin saturation (sO2) was calculated as follows:[…]
Blank pixels represent areas lacking a detectable hemoglobin signal. The average sO2^MSOT was calculated pixelwise in each ROI for the air and oxygen breathing periods as sO2^MSOT (Air) and sO2^MSOT (O2), and the response to the oxygen gas challenge was as follows:∆sO2 = sO2 (O2) − sO2 (Air)(2) […]

[3] = system: Renca-luc cells; test: Renca-luc sulforhodamine B (SRB) assay, cell growth inhibition; type: cell-based; conditions: Mus musculus, 48 h
Description: (§3) In two independent trials of Renca and Renca-luc cells were plated in triplicate at 8000 cells/well into 96-well plates and incubated for 24 h at 37 °C in a humidified incubator with 5% CO2 followed by a 48 h treatment period at ten-fold dilutions of the drug.

[4] = Pharmacokinetic study in Renca-luc tumor-bearing BALB/c mice; type: in vivo, mouse; conditions: for Tmax / half-life / Cmax: ip; for Cmax: read-out: Cmax
Description: Plasma and tissues were harvested at various time points (20 min to 16 h) from Renca-luc tumor-bearing BALB/c male mice following the administration of OXi8007 IP. Mice treated with 250 mg/kg were sacrificed at 20 min (n = 3), 1 h (n = 4), 2 h (n = 4), 4 h (n = 4), 8 h (n = 4), and 16 h (n = 4). Mice were anesthetized, exsanguinated, the tissues were blotted, and then they were weighed and frozen in liquid nitrogen. Homogenized plasma and tissue samples were extracted with acetonitrile with a bead mill; internal standard (CA4 or tri-labeled ^13C-OXi8006) was added to each sample to reach a final concentration of 10 ppb. Samples were centrifuged twice to remove precipitated proteins (16,260× g for 10 min at 4 °C). Clear supernatant was transferred into MS vials, and formic acid was added to a final concentration of 0.1% for LC-MS analysis. […] Mobile phase A consisted of 0.1% v/v formic acid in water, and mobile phase B was acetonitrile, which was mixed by the binary pump with an elution gradient at a flow rate of 0.6 mL/min. Data were analyzed using Xcalibur 4.6 software based on exact masses, and Phoenix WinNonlin 8.5.0 software was used to determine the pharmacokinetic parameters based on a non-compartmental model.

[5] = system: orthotopic XP258 human tumor xenografts; test: Acute response of XP258 tumors by MSOT; type: in vivo, mouse; conditions: XP258, four hours post-treatment, 250 mg/kg IP
Description: as §1, §2
Blank pixels represent areas lacking a detectable hemoglobin signal. The average sO2^MSOT was calculated pixelwise in each ROI for the air and oxygen breathing periods as sO2^MSOT (Air) and sO2^MSOT (O2), and the response to the oxygen gas challenge was as follows:∆sO2 = sO2 (O2) − sO2 (Air)(2)

[6] = system: orthotopic Renca-luc tumors; test: Acute response by dynamic bioluminescence imaging (BLI) and histology; type: in vivo, mouse
Description: Anesthesia was induced with 1–3% isoflurane, and the mice were placed on the warmed imaging stage of an IVIS Spectrum® small animal imaging system (Xenogen/PerkinElmer Inc., Waltham, MA, USA) with continuous exposure to 1 to 2% isoflurane, as described previously. On successive occasions, mice were administered 75 µL of D-luciferin (sodium salt; Gold Biotechnology, St. Louis, MO, USA) SC in the fore back neck region as a 40 mg/mL solution in 0.9% saline. The BLI signal was quantified as the total flux using Living Image Software 4.3.7. Fresh luciferin was administered 4 and 24 h after drug administration to reveal acute changes in tumor perfusion.
Acute effects of OXi8007 were examined on Renca-luc tumor-bearing mice using BLI (n = 8) and MSOT (n = 6) by comparing images at the baseline [pre (0 h)] and following OXi8007 administration (IP) at 4 h and 24 h. Dynamic BLI images were acquired every minute over the course of 15–20 min immediately following luciferin injection. For MSOT, the same mice underwent a gas breathing challenge for 5 min in air (21% O2), 7 min in O2 (100% O2), followed by 3 min in air at 0 h, 4 h, and 24 h post-treatment.

[7] = system: Renca cells; test: Renca sulforhodamine B (SRB) assay, cell growth inhibition; type: cell-based; conditions: Mus musculus, Renca, 48 h
Description: as §3

[8] = male, BALB/c, mouse, in vivo, 250 mg/kg, brain, after OXi8007 250 mg/kg IP
[9] = male, BALB/c, mouse, in vivo, 250 mg/kg, heart, after OXi8007 250 mg/kg IP
[10] = male, BALB/c, mouse, in vivo, 250 mg/kg, left kidney, after OXi8007 250 mg/kg IP
[11] = male, BALB/c, mouse, in vivo, 250 mg/kg, liver, after OXi8007 250 mg/kg IP
[12] = male, BALB/c, mouse, in vivo, 250 mg/kg, lungs, after OXi8007 250 mg/kg IP
[13] = male, BALB/c, mouse, in vivo, 250 mg/kg, plasma, after OXi8007 250 mg/kg IP
[14] = male, BALB/c, mouse, in vivo, 250 mg/kg, spleen, after OXi8007 250 mg/kg IP
[15] = male, BALB/c, mouse, in vivo, 250 mg/kg, tumor and right kidney, after OXi8007 250 mg/kg IP

With `COc1ccc2c(C(=O)c3cc(OC)c(OC)c(OC)c3)c(-c3ccc(OC)c(OP(=O)(O)O)c3)[nH]c2c1` [OXi8007] the “Effect on microtubule structure” value [1] was “rapid progressive loss of microtubule structure”, the “Period of vascular hypoxiation to plateau (MSOT)” value ([2]; 350 mg/kg IP in situ using a catheter, while breathing O2) was “about 30 min” and the “Time to hypoxiation (photoacoustic imaging)” value ([2]; after intraperitoneal administration) was ≤ 30 min. For the same compound, the IC50 [3] was 1560 ± 48 nM, the “Concentration in the tumor, molar equivalent” value ([4]; Renca-luc tumor, from 15 ng/mg) was 32 µM and the “Concentration in the tumor” value ([4]; Renca-luc tumor, maximum) was 15 ng/mg. For the same compound, the AUC ([4]; brain, after OXi8007 250 mg/kg IP) was 0.11 ng·h/mg, the AUC ([4]; heart, after OXi8007 250 mg/kg IP) was 1.32 ng·h/mg and the AUC ([4]; left kidney, after OXi8007 250 mg/kg IP) was 2.05 ng·h/mg. The AUC ([4]; liver, after OXi8007 250 mg/kg IP) was 12.67 ng·h/mg, the AUC ([4]; lungs, after OXi8007 250 mg/kg IP) was 2.3 ng·h/mg and the concentration at 4 h ([4]; male, BALB/c, mouse, in vivo, 250 mg/kg, plasma, within 4 h after OXi8007 IP) was 10000 ng/mL. The Tmax ([4]; male, BALB/c, mouse, in vivo, 250 mg/kg, Renca-luc tumors, IP administration, read-out: Time to maximum concentration in tumors) was ≤ 60 min, the half-life [4, 8] was 30.6 min and the Cmax [4, 8] was 70 ng/g. It also gave a Tmax ([4]; male, BALB/c, mouse, in vivo, 250 mg/kg, brain, after OXi8007 250 mg/kg IP, read-out: Tmax (converted)) of 60 min, a half-life [4, 9] of 36.6 min and a Cmax [4, 9] of 1620 ng/g. The Tmax ([4]; male, BALB/c, mouse, in vivo, 250 mg/kg, heart, after OXi8007 250 mg/kg IP, read-out: Tmax (converted)) was 20 min, the half-life [4, 10] was 70.8 min and the Cmax [4, 10] was 1400 ng/g. It also gave a Tmax ([4]; male, BALB/c, mouse, in vivo, 250 mg/kg, left kidney, after OXi8007 250 mg/kg IP, read-out: Tmax (converted)) of 20 min, a half-life [4, 11] of 66 min and a Cmax [4, 11] of 13400 ng/g. It also gave a Tmax ([4]; male, BALB/c, mouse, in vivo, 250 mg/kg, liver, after OXi8007 250 mg/kg IP, read-out: Tmax (converted)) of 20 min, a half-life [4, 12] of 42 min and a Cmax [4, 12] of 1610 ng/g. The Tmax ([4]; male, BALB/c, mouse, in vivo, 250 mg/kg, lungs, after OXi8007 250 mg/kg IP, read-out: Tmax (converted)) was 20 min, the half-life [4, 13] was 49 min and the half-life ([4]; male, BALB/c, mouse, in vivo, 250 mg/kg, plasma, after OXi8007 250 mg/kg IP, Renca-luc tumor-bearing BALB/c mice) was 49.2 min. For the same compound, the Cmax [4, 13] was 453 µg/mL, the Tmax ([4]; male, BALB/c, mouse, in vivo, 250 mg/kg, plasma, after OXi8007 250 mg/kg IP, read-out: Tmax (converted)) was 20 min and the half-life [4, 14] was 39 min. For the same compound, the Cmax [4, 14] was 990 ng/g, the Tmax ([4]; male, BALB/c, mouse, in vivo, 250 mg/kg, spleen, after OXi8007 250 mg/kg IP, read-out: Tmax (converted)) was 60 min and the half-life [4, 15] was 120 min. For the same compound, the Cmax [4, 15] was 15000 ng/g, the Tmax ([4]; male, BALB/c, mouse, in vivo, 250 mg/kg, tumor and right kidney, after OXi8007 250 mg/kg IP, read-out: Tmax (converted)) was 60 min and the Plasma concentration ([4]; plasma, maximum, after OXi8007 IP) was “about 450 µg/mL”. The AUC ([4]; plasma, after OXi8007 250 mg/kg IP, zero to last quantifiable concentration) was 511 ^# h × ng/µL, the AUC ([4]; spleen, after OXi8007 250 mg/kg IP) was 1.41 ng·h/mg and the AUC ([4]; tumor and right kidney, after OXi8007 250 mg/kg IP) was 36.31 ng·h/mg. The “Tumor vascular oxygenation (MSOT)” value [5] was “less well oxygenated and less responsive to the oxygen gas breathing challenge”, the “BLI signal relative to baseline” value ([6]; 4 h after OXi8007 250 mg/kg IP, 8 mice) was < 2 % baseline and the Histology of tumor ([6]; Renca-luc, within 4 h post-treatment) was “extensive intratumoral hemorrhage”. For the same compound, the “Vascular shutdown (BLI)” value ([6]; within 4 h, orthotopic kidney tumors) was > 98% and the IC50 [7] was 1450 ± 1 nM.
